Experimental data reported in PubChem BioAssay (NCI).
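Five concentrations, 48 hours, 96-well plates. GI50: concentration for 50% inhibition of growth. The concentration for full growth arrest is given as TGI.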

Tests used:
Assay in all cases: growth of human tumour cells (NCI), 48 h
A498 renal = tested on: A498 renal
K-562 leukemia = tested on: K-562 leukemia
CAKI-1 renal = tested on: CAKI-1 renal
OVCAR-8 ovarian = tested on: OVCAR-8 ovarian
SK-MEL-5 melanoma = tested on: SK-MEL-5 melanoma
HCC-2998 colon = tested on: HCC-2998 colon
SK-MEL-2 melanoma = tested on: SK-MEL-2 melanoma
LOX IMVI melanoma = tested on: LOX IMVI melanoma
NCI-H460 lung = tested on: NCI-H460 lung
CCRF-CEM leukemia = tested on: CCRF-CEM leukemia
DU-145 prostate = tested on: DU-145 prostate
MDA-MB-231 breast = tested on: MDA-MB-231 breast
HCT-116 colon = tested on: HCT-116 colon
OVCAR-3 ovarian = tested on: OVCAR-3 ovarian
BT-549 breast = tested on: BT-549 breast
SF-268 CNS = tested on: SF-268 CNS
HS 578T breast = tested on: HS 578T breast
MDA-MB-435 = tested on: MDA-MB-435
SF-295 CNS = tested on: SF-295 CNS
786-0 renal = tested on: 786-0 renal
MALME-3M melanoma = tested on: MALME-3M melanoma
KM12 colon = tested on: KM12 colon
ACHN renal = tested on: ACHN renal
RPMI-8226 leukemia = tested on: RPMI-8226 leukemia
PC-3 prostate = tested on: PC-3 prostate
M14 melanoma = tested on: M14 melanoma
NCI/ADR-RES ovarian = tested on: NCI/ADR-RES ovarian
HOP-92 NSCLC = tested on: HOP-92 NSCLC
UO-31 renal = tested on: UO-31 renal
SW-620 colon = tested on: SW-620 colon
U251 CNS = tested on: U251 CNS
RXF 393 renal = tested on: RXF 393 renal
OVCAR-4 ovarian = tested on: OVCAR-4 ovarian
NCI-H23 lung = tested on: NCI-H23 lung
NCI-H522 lung = tested on: NCI-H522 lung
IGROV1 ovarian = tested on: IGROV1 ovarian
SN12C renal = tested on: SN12C renal
HCT-15 colon = tested on: HCT-15 colon
A549 NSCLC = tested on: A549 NSCLC
UACC-257 melanoma = tested on: UACC-257 melanoma
OVCAR-5 ovarian = tested on: OVCAR-5 ovarian
EKVX NSCLC = tested on: EKVX NSCLC
MOLT-4 leukemia = tested on: MOLT-4 leukemia
TK-10 renal = tested on: TK-10 renal
NCI-H226 lung = tested on: NCI-H226 lung
HL-60(TB) leukemia = tested on: HL-60(TB) leukemia
UACC-62 melanoma = tested on: UACC-62 melanoma
SF-539 CNS = tested on: SF-539 CNS
SR leukemia = tested on: SR leukemia
HOP-62 NSCLC = tested on: HOP-62 NSCLC
MCF7 breast = tested on: MCF7 breast

Compound: O=C(CSC(c1ccccc1)c1ccccc1)N/N=C/c1ccc(Cl)cc1Cl
- GI50 (A498 renal): 25.6 µM
- TGI (A498 renal): 52.1 µM
- GI50 (K-562 leukemia): 19 µM
- TGI (K-562 leukemia): 96.6 µM
- GI50 (CAKI-1 renal): 38.3 µM
- TGI (CAKI-1 renal): 83 µM
- GI50 (OVCAR-8 ovarian): 37.9 µM
- TGI (OVCAR-8 ovarian): > 100 µM
- GI50 (SK-MEL-5 melanoma): 18.1 µM
- TGI (SK-MEL-5 melanoma): 32.7 µM
- GI50 (HCC-2998 colon): 26.9 µM
- TGI (HCC-2998 colon): 71 µM
- GI50 (SK-MEL-2 melanoma): 18.4 µM
- TGI (SK-MEL-2 melanoma): 55.8 µM
- GI50 (LOX IMVI melanoma): 27.1 µM
- TGI (LOX IMVI melanoma): 97.4 µM
- GI50 (NCI-H460 lung): 20.1 µM
- TGI (NCI-H460 lung): 49.8 µM
- GI50 (CCRF-CEM leukemia): 31.5 µM
- TGI (CCRF-CEM leukemia): > 100 µM
- GI50 (DU-145 prostate): 32.9 µM
- TGI (DU-145 prostate): 93.5 µM
- GI50 (MDA-MB-231 breast): 22.5 µM
- TGI (MDA-MB-231 breast): > 100 µM
- GI50 (HCT-116 colon): 18.5 µM
- TGI (HCT-116 colon): 44.4 µM
- GI50 (OVCAR-3 ovarian): 29.2 µM
- TGI (OVCAR-3 ovarian): 83 µM
- GI50 (BT-549 breast): 30 µM
- TGI (BT-549 breast): 75.8 µM
- GI50 (SF-268 CNS): 36.8 µM
- TGI (SF-268 CNS): > 100 µM
- GI50 (HS 578T breast): 34.8 µM
- TGI (HS 578T breast): > 100 µM
- GI50 (MDA-MB-435): 29.6 µM
- TGI (MDA-MB-435): 79.2 µM
- GI50 (SF-295 CNS): 33.6 µM
- TGI (SF-295 CNS): 90.8 µM
- GI50 (786-0 renal): 40.1 µM
- TGI (786-0 renal): > 100 µM
- GI50 (MALME-3M melanoma): 16 µM
- TGI (MALME-3M melanoma): 42 µM
- GI50 (KM12 colon): 16.6 µM
- TGI (KM12 colon): 38.9 µM
- GI50 (ACHN renal): 26.6 µM
- TGI (ACHN renal): 66.3 µM
- GI50 (RPMI-8226 leukemia): 15.6 µM
- TGI (RPMI-8226 leukemia): 41.8 µM
- GI50 (PC-3 prostate): 31.9 µM
- TGI (PC-3 prostate): > 100 µM
- GI50 (M14 melanoma): 29.2 µM
- TGI (M14 melanoma): 87.2 µM
- GI50 (NCI/ADR-RES ovarian): 35.3 µM
- TGI (NCI/ADR-RES ovarian): > 100 µM
- GI50 (HOP-92 NSCLC): 31.1 µM
- TGI (HOP-92 NSCLC): 83.4 µM
- GI50 (UO-31 renal): 18.8 µM
- TGI (UO-31 renal): 68 µM
- GI50 (SW-620 colon): 42 µM
- TGI (SW-620 colon): > 100 µM
- GI50 (U251 CNS): 24 µM
- TGI (U251 CNS): 67.3 µM
- GI50 (RXF 393 renal): 34.4 µM
- TGI (RXF 393 renal): 89.1 µM
- GI50 (OVCAR-4 ovarian): 38.8 µM
- TGI (OVCAR-4 ovarian): > 100 µM
- GI50 (NCI-H23 lung): 21.4 µM
- TGI (NCI-H23 lung): 56.9 µM
- GI50 (NCI-H522 lung): 12.4 µM
- TGI (NCI-H522 lung): 59.2 µM
- GI50 (IGROV1 ovarian): 19.9 µM
- TGI (IGROV1 ovarian): 53.5 µM
- GI50 (SN12C renal): 15.7 µM
- TGI (SN12C renal): 29.9 µM
- GI50 (HCT-15 colon): 37.6 µM
- TGI (HCT-15 colon): > 100 µM
- GI50 (A549 NSCLC): 20.5 µM
- TGI (A549 NSCLC): 51.1 µM
- GI50 (UACC-257 melanoma): 23.1 µM
- TGI (UACC-257 melanoma): 68.3 µM
- GI50 (OVCAR-5 ovarian): 31.6 µM
- TGI (OVCAR-5 ovarian): > 100 µM
- GI50 (EKVX NSCLC): 43.6 µM
- TGI (EKVX NSCLC): > 100 µM
- GI50 (MOLT-4 leukemia): 19.6 µM
- TGI (MOLT-4 leukemia): 68.1 µM
- GI50 (TK-10 renal): 26 µM
- TGI (TK-10 renal): 72 µM
- GI50 (NCI-H226 lung): 32.6 µM
- TGI (NCI-H226 lung): > 100 µM
- GI50 (HL-60(TB) leukemia): 24.4 µM
- TGI (HL-60(TB) leukemia): 55.1 µM
- GI50 (UACC-62 melanoma): 21.9 µM
- TGI (UACC-62 melanoma): > 100 µM
- GI50 (SF-539 CNS): 57.7 µM
- TGI (SF-539 CNS): > 100 µM
- GI50 (SR leukemia): 17 µM
- TGI (SR leukemia): 38.8 µM
- GI50 (HOP-62 NSCLC): 42.3 µM
- TGI (HOP-62 NSCLC): > 100 µM
- GI50 (MCF7 breast): 7.82 µM
- TGI (MCF7 breast): 29.2 µM
